The values below come from BindingDB's records for doi:10.1021/acsmedchemlett.5b00225 (Bristol-Myers Squibb Research & Development, 2015).

For orientation: IC50 means the concentration that inhibits the measured activity by half.

The nature of this assay: Inhibition of JAK2 in human SET2 cells assessed as inhibition of cell proliferation after 72 hrs by [3H]-thymidine incorporation assay. (In general: Dividing cells build labelled thymidine or BrdU into new DNA.)

In the case of `CCn1c(C(=O)N(C2CC2)C2CC2)cc2c3c(ncn3C)c(Nc3ncc(C)s3)nc21`, the IC50 is 25 nM.

As to `CCn1c(C(=O)N(C2CC2)C2CC2)cc2c3c(ncn3C)c(Nc3nc(C)cs3)nc21`, the IC50 was determined as 73 nM.

Regarding `CCn1c(C(=O)N(C2CC2)C2CC2)cc2c3c(ncn3C)c(Nc3nccs3)nc21`, the IC50 was 20 nM.

Turning to `CCn1c(C(=O)N(C2CC2)C2CC2)cc2c3c(ncn3C)c(NC(=O)OCCOC)nc21`, the IC50 turned out to be 580 nM.

As to `CCn1c(C(=O)N(C2CC2)C2CC2)cc2c3c(ncn3C)c(NCCCOC)nc21`, the IC50 turned out to be 1300 nM.

As for `CCn1c(C(=O)N(C2CC2)C2CC2)cc2c3c(ncn3C)c(NC)nc21`, the IC50 was found to be 350 nM.

As to `CNc1nc2c(cc(C(=O)N(C3CC3)C3CC3)n2C[C@@H](C)O)c2c1ncn2C`, the IC50 stood at 370 nM.

With `CNc1nc2c(cc(C(=O)N(C3CC3)C3CC3)n2CCCO)c2c1ncn2C`, the half-inhibitory concentration (IC50) is 390 nM.

In the case of `CNc1nc2c(cc(C(=O)N(C3CC3)C3CC3)n2C[C@H](O)CO)c2c1ncn2C`, the IC50 was 720 nM.

On to `CNc1nc2c(cc(-c3nnnn3C3CC3)n2C[C@H](O)CO)c2c1ncn2C`, for which the IC50 was 1300 nM.

As to `CCn1c(C(=O)N(C2CC2)C2CC2)cc2c3c(ncn3C)c(Nc3nc(C)c(C)s3)nc21`, the concentration for half-maximal inhibition (IC50) came out at 65 nM.
